In brackets after ≈: the same amount, converted by molar mass. Where a SMILES comes first, the peptide text is derived from it. [ ]: non-standard residue; d: D form. The star is where a group is joined. Orn(α-tetramethylguanidino) = CN(C)C(=N[C@@H](CCCN)C(=O)*)N(C)C; Orn = NCCC[C@H](N)C(=O)O
Tests used:
in vitro [1] = format: cell-based, human; settings: human
Procedure: (§1) Human embryonic kidney (HEK293) and HeLa cells were cultured in Dulbecco's modified Eagle's/Ham's F-12 medium [DMEM/F-12 (1:1)] supplemented with FBS (10% v/v), penicillin, and streptomycin (1000 units each). Primary rat cardiomyocytes (Innoprot, Elexalde Derio, Spain) were grown in medium supplemented with FBS (20% v/v), horse serum (5% v/v), L-glutamine (2 mmol/L), sodium pyruvate (2 mmol/L), MEM non-essential amino acids (Gibco, 0.1 mmol/L), penicillin, and streptomycin (1000 units each). Surfaces for cardiomyocyte growth were coated with attachment factor first. Cells (20,000/well) were seeded into a 96-well plate (PS, sterile, flat bottom), incubated for 24 h (37°C, 5% CO2), and washed twice with PBS (100 μl/well) prior to adding colorless medium (88 μL) and peptide solution (12 μL; 5, 2.5, 1.25, […], and 0.625 g/L in PBS). Positive controls were triton X-100 (1%, v/v) and melittin (60 mg/L) as lytic peptide, whereas PBS (12%, v/v) served as negative control. After an incubation period of 24 h, supernatant (25 μL) was mixed with lactate dehydrogenase (LDH) substrate (175 μL; 0.57 mmol/L sodium pyruvate, 0.24 mmol/L NADH disodium salt, 32 mmol/L potassium dihydrogen phosphate, 66 mmol/L dipotassium phosphate) in 96-well plates (PS, sterile, flat bottom). Absorbance was recorded at 340 nm every 3 min for 30 min on the Paradigm microplate reader. Due to the total release of LDH upon triton X-100 treatment, the control contained high LDH concentrations resulting in a fast substrate turnover that was only linear for the first 6 min.
(§2) The MTT cell viability assay relied on the same cell culture. Remaining medium was replaced by a mixture of fresh colorless medium (100 μL) and MTT (10 μL; 5 g/L in PBS) and incubated for 4 h (37°C, 5% CO2). A solution of sodium dodecyl sulfate (100 μL; 10%, w/v) dissolved in hydrochloric acid (10 mmol/L) was added, incubated (16 h), and the absorbance recorded at 590 nm relative to the reference at 650 nm (Paradigm microplate reader). The relative cell viability was calculated by [(ODPeptide − ODTriton)/(ODPBS − ODTriton)] × 100% and half-maximal inhibitory concentrations (IC50) with an Excel-template from cell biology protocols (www.sciencegateway.org/ protocols/cellbio/drug/hcic50.htm). For statistical analysis an unpaired t-test was applied using GraphPad Prism 5.0.

E. coli DSM 1103 = assay: Transmission electron microscopy, morphological changes; format: cell-based, Escherichia coli; settings: 1 h
Procedure: Peptide-bacteria mixtures were fixed (2% glutaraldehyde, 5 mmol/L CaCl2, 10 mmol/L MgCl2 in 0.1 mol/L sodium cacodylate buffer, pH 7.4) overnight at 4°C. […] Samples were rinsed with distilled water (5 × 10 min), incubated with aqueous uranylacetate (0.5% w/v) for 1 h at 4°C, washed with distilled water (3 × 10 min), and embedded in Epon. The hardened blocks were sectioned (50 nm) on a UCT ultramicrotome (Leica, Vienna, Austria), stained with uranyl acetate and lead citrate on an AC20 system (Leica), and visualized at a Tecnai 12 electron microscope (FEI, Eindhoven, The Netherlands) at 80 kV. Morphological effects were quantified on average for 25 cells per condition.

HEK293 cells = assay: in vitro; format: cell-based, human; settings: 24 h
Procedure: as §1, §2

in vitro [2] = settings: mouse, mouse serum
Procedure: Peptide solutions (1 g/L) were added to mouse serum to obtain final concentrations of 70 mg/L peptide and incubated under constant shaking at 37°C. After 0, 1, 2, 3, and 6 h aliquots (95 μL) were precipitated with aqueous TCA (25 μL, 15% w/v), incubated for 10 min on ice, and centrifuged (5 min, 12,000 × g, Eppendorf mini spin centrifuge). An aliquot of the supernatant (95 μL) was neutralized with sodium hydroxide (8 μL, 1 mol/L) and diluted with aqueous acetonitrile solution (3% acetonitrile, 0.1% TFA; 200 μL). Peptides were quantified by the peak areas obtained by analytical RP-HPLC on a Jupiter C18-column (ID: 2 mm) using a linear aqueous acetonitrile gradient with 0.1% (v/v) TFA (absorbance recorded at 214 nm). Peak areas of all time points were normalized to the initial peak area obtained after “0 min incubation” (= 100%). Experiments were carried out as triplicates in parallel and half-life times were calculated using GraphPad Prism 5.0.

HeLa cells = assay: Flow cytometry, endocytosis inhibition with dynasore; format: cell-based; settings: dynasore 0.2 mmol/L 45 min, peptide 40 μmol/L 30 min
Procedure: Fresh colorless medium (150 μL) supplemented with either dynasore (0.2 mmol/L) dissolved in DMSO (final concentration of 0.2% v/v) or DMSO (0.2% v/v) as vehicle control was added. After 45 min (37°C) the supernatant was replaced by fresh medium supplemented with either dynasore or DMSO at the same concentrations (144 μL), Cf-labeled peptide added (6 μL, 1 mmol/L in water), and incubated (30 min, 37°C). Cells were fixed and stained with Hoechst 33342 as described above.
HeLa cells (50,000 for endocytosis inhibition and 70,000 for uptake kinetics) suspended in DMEM/F-12 medium (300 μL; see above) were seeded into 48-well plates (PS, sterile, flat bottom) and incubated (23 ± 1 h) using the conditions described above. Cells were washed twice with PBS (300 μL/well) and fresh medium was added (144 μL).
Cell cultures were prepared and incubated in the presence of dynasore, as described for microscopy. Cells were washed, treated with trypsin, and fixed as described above, dissolved in FACS buffer, and analyzed the same day.

CC[C@H](C)[C@H](NC(=O)[C@H](Cc1ccc(O)cc1)NC(=O)[C@@H](NC(=O)[C@@H]1CCCN1C(=O)[C@H](CCCNC(=N)N)NC(=O)[C@H](CC(N)=O)NC(=O)[C@H](CC(N)=O)NC(=O)[C@H](CCCN)N=C(N(C)C)N(C)C)C(C)C)C(=O)N1CCC[C@H]1C(=O)N[C@@H](CCCNC(=N)N)C(=O)N1CCC[C@H]1C(=O)N[C@@H](CCCNC(=N)N)C(=O)N1CCC[C@H]1C(=O)N1CCC[C@H]1C(=O)N[C@@H](Cc1c[nH]cn1)C(=O)N1CCC[C@H]1C(=O)N[C@@H](CCCNC(=N)N)C(=O)N[C@@H](CC(C)C)C(=O)O [Api137, gu-ONNRPVYIPRPRPPHPRL-OH, reference compound] ({Orn(α-tetramethylguanidino)}-NNRPVYIPRPRPPHPRL-OH)
viability at 24 h, 0.6 g/L (in vitro [1]): 83 ± 3% | Cell: r, ruptured (E. coli DSM 1103; 8 µg/mL): 0% | DNA/Ribosomes relocalized (E. coli DSM 1103; 8 µg/mL): 17% | Fragments: +++, long and thick (E. coli DSM 1103; 8 µg/mL): 0% | Fragments: ++, long and thin (E. coli DSM 1103; 8 µg/mL): 27% | Fragments: +, small and thin (E. coli DSM 1103; 8 µg/mL): 30% | Fragments: -, no (E. coli DSM 1103; 8 µg/mL): 43% | Fragments: LV, large vesicles (E. coli DSM 1103; 8 µg/mL): 0% | Membrane: i, intact (E. coli DSM 1103; 8 µg/mL): 100% | Membrane: w, wrinkled (E. coli DSM 1103; 8 µg/mL): 0% | Vesicle release strong (E. coli DSM 1103; 8 µg/mL): 100% | Cell: r, ruptured (E. coli DSM 1103; 32 µg/mL): 0% | DNA/Ribosomes relocalized (E. coli DSM 1103; 32 µg/mL): 30% | Fragments: +++, long and thick (E. coli DSM 1103; 32 µg/mL): 0% | Fragments: ++, long and thin (E. coli DSM 1103; 32 µg/mL): 23% | Fragments: +, small and thin (E. coli DSM 1103; 32 µg/mL): 40% | Fragments: -, no (E. coli DSM 1103; 32 µg/mL): 37% | Fragments: LV, large vesicles (E. coli DSM 1103; 32 µg/mL): 0% | Membrane: i, intact (E. coli DSM 1103; 32 µg/mL): 97% | Membrane: w, wrinkled (E. coli DSM 1103; 32 µg/mL): 3% | Vesicle release strong (E. coli DSM 1103; 32 µg/mL): 100% | Cell: r, ruptured (E. coli DSM 1103; 128 µg/mL): 0% | DNA/Ribosomes relocalized (E. coli DSM 1103; 128 µg/mL): 0% | Fragments: +++, long and thick (E. coli DSM 1103; 128 µg/mL): 0% | Fragments: ++, long and thin (E. coli DSM 1103; 128 µg/mL): 42% | Fragments: +, small and thin (E. coli DSM 1103; 128 µg/mL): 54% | Fragments: -, no (E. coli DSM 1103; 128 µg/mL): 4% | Fragments: LV, large vesicles (E. coli DSM 1103; 128 µg/mL): 0% | Membrane: i, intact (E. coli DSM 1103; 128 µg/mL): 4% | Membrane: w, wrinkled (E. coli DSM 1103; 128 µg/mL): 96% | Vesicle release weak (E. coli DSM 1103; 128 µg/mL): 35% | Cell: r, ruptured (E. coli DSM 1103; 512 µg/mL): 0% | DNA/Ribosomes relocalized (E. coli DSM 1103; 512 µg/mL): 0% | Fragments: +++, long and thick (E. coli DSM 1103; 512 µg/mL): 0% | Fragments: ++, long and thin (E. coli DSM 1103; 512 µg/mL): 29% | Fragments: +, small and thin (E. coli DSM 1103; 512 µg/mL): 61% | Fragments: -, no (E. coli DSM 1103; 512 µg/mL): 11% | Fragments: LV, large vesicles (E. coli DSM 1103; 512 µg/mL): 0% | Membrane: i, intact (E. coli DSM 1103; 512 µg/mL): 32% | Membrane: w, wrinkled (E. coli DSM 1103; 512 µg/mL): 68% | Vesicle release weak (E. coli DSM 1103; 512 µg/mL): 50%

CC(C)C[C@H](NC(=O)[C@H](CCCNC(=N)N)NC(=O)[C@@H]1CCCN1C(=O)[C@H](Cc1c[nH]cn1)NC(=O)[C@@H]1CCCN1C(=O)[C@@H]1CCCN1C(=O)[C@H](CCCNC(=N)N)NC(=O)[C@@H]1CCCN1C(=O)[C@H](CCCNC(=N)N)NC(=O)[C@@H]1CCCN1C(=O)[C@H](CCCN)NC(=O)[C@H](Cc1ccc(O)cc1)NC(=O)[C@@H](NC(=O)[C@@H]1CCCN1C(=O)[C@H](CCCNC(=N)N)NC(=O)[C@H](CCCN)NC(=O)[C@H](Cc1c[nH]c2ccccc12)NC(=O)[C@H](CCCN)NC(=O)[C@H](Cc1c[nH]c2ccccc12)NC(=O)[C@H](CCCN)NC(=O)[C@H](Cc1c[nH]c2ccccc12)NC(=O)[C@H](CCCN)N=C(N(C)C)N(C)C)C(C)C)C(=O)O [Api794, gu-O(WO)3RPVYOPRPRPPHPRL-OH] ({Orn(α-tetramethylguanidino)}-W[Orn]W[Orn]W[Orn]RPVY[Orn]PRPRPPHPRL-OH)
IC50 on cell viability (HEK293 cells): 280 ± 30 µg/mL (≈ 94.4 µM) | half-life at 70 mg/L (in vitro [2]; Half-life time against serum proteases, serum (abstract)): > 5 h | half-life at 70 mg/L (in vitro [2]; Half-life time mouse serum, 37°C): 5.18 h | Cell: r, ruptured (E. coli DSM 1103; 16 µg/mL): 0% | DNA/Ribosomes relocalized (E. coli DSM 1103; 16 µg/mL): 0% | Fragments: +++, long and thick (E. coli DSM 1103; 16 µg/mL): 0% | Fragments: ++, long and thin (E. coli DSM 1103; 16 µg/mL): 23% | Fragments: +, small and thin (E. coli DSM 1103; 16 µg/mL): 40% | Fragments: -, no (E. coli DSM 1103; 16 µg/mL): 37% | Fragments: LV, large vesicles (E. coli DSM 1103; 16 µg/mL): 0% | Membrane: i, intact (E. coli DSM 1103; 16 µg/mL): 33% | Membrane: w, wrinkled (E. coli DSM 1103; 16 µg/mL): 67% | Vesicle release strong (E. coli DSM 1103; 16 µg/mL): 100% | Cell: r, ruptured (E. coli DSM 1103; 64 µg/mL): 0% | DNA/Ribosomes relocalized (E. coli DSM 1103; 64 µg/mL): 0% | Fragments: +++, long and thick (E. coli DSM 1103; 64 µg/mL): 23% | Fragments: ++, long and thin (E. coli DSM 1103; 64 µg/mL): 33% | Fragments: +, small and thin (E. coli DSM 1103; 64 µg/mL): 27% | Fragments: -, no (E. coli DSM 1103; 64 µg/mL): 17% | Fragments: LV, large vesicles (E. coli DSM 1103; 64 µg/mL): 3% | Membrane: i, intact (E. coli DSM 1103; 64 µg/mL): 100% | Membrane: w, wrinkled (E. coli DSM 1103; 64 µg/mL): 0% | Vesicle release strong (E. coli DSM 1103; 64 µg/mL): 97% | Cell: r, ruptured (E. coli DSM 1103; 256 µg/mL): 0% | DNA/Ribosomes relocalized (E. coli DSM 1103; 256 µg/mL): 0% | Fragments: +++, long and thick (E. coli DSM 1103; 256 µg/mL): 3% | Fragments: ++, long and thin (E. coli DSM 1103; 256 µg/mL): 37% | Fragments: +, small and thin (E. coli DSM 1103; 256 µg/mL): 43% | Fragments: -, no (E. coli DSM 1103; 256 µg/mL): 17% | Fragments: LV, large vesicles (E. coli DSM 1103; 256 µg/mL): 93% | Membrane: i, intact (E. coli DSM 1103; 256 µg/mL): 3% | Membrane: w, wrinkled (E. coli DSM 1103; 256 µg/mL): 97% | Vesicle release strong (E. coli DSM 1103; 256 µg/mL): 97% | Cell: r, ruptured (E. coli DSM 1103; 512 µg/mL): 3% | DNA/Ribosomes relocalized (E. coli DSM 1103; 512 µg/mL): 30% | Fragments: +++, long and thick (E. coli DSM 1103; 512 µg/mL): 17% | Fragments: ++, long and thin (E. coli DSM 1103; 512 µg/mL): 30% | Fragments: +, small and thin (E. coli DSM 1103; 512 µg/mL): 37% | Fragments: -, no (E. coli DSM 1103; 512 µg/mL): 17% | Fragments: LV, large vesicles (E. coli DSM 1103; 512 µg/mL): 97% | Membrane: i, intact (E. coli DSM 1103; 512 µg/mL): 93% | Membrane: w, wrinkled (E. coli DSM 1103; 512 µg/mL): 7% | Vesicle release strong (E. coli DSM 1103; 512 µg/mL): 93% | Drop of GeoMean fluorescence (uptake) in the presence of dynasore vs vehicle control (HeLa cells): 50%

Reference: paper PMC4861708 (Frontiers in Cell and Developmental Biology, 2016)
